In ChEMBL document CHEMBL4507319 (2021):

Assays:
[1] = molecular target: T1, Testis-specific serine/threonine-protein kinase 1 (Homo sapiens) (UniProt Q9BXA7); conditions: Compound concentration 1000.0 nM
T1 sequence (whole entry): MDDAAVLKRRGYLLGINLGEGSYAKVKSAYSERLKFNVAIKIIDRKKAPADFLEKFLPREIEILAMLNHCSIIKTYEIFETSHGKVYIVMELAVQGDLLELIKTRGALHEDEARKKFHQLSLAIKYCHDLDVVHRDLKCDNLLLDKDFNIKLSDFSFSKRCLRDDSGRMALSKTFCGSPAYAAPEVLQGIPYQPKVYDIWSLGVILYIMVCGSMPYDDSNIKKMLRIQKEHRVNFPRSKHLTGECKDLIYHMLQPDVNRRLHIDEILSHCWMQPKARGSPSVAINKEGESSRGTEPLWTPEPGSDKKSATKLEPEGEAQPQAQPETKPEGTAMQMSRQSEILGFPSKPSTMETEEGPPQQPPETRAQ

[2] = molecular target: D(1B) dopamine receptor (Homo sapiens) (UniProt P21918); conditions: Compound concentration 10.0 uM
[3] = molecular target: Casein kinase I isoform gamma-3 (Homo sapiens) (UniProt Q9Y6M4); conditions: Compound concentration 1000.0 nM
[4] = molecular target: Serine/threonine-protein kinase 32A (Homo sapiens) (UniProt Q8WU08); conditions: Compound concentration 1000.0 nM
[5] = molecular target: Receptor-interacting serine/threonine-protein kinase 4 (Homo sapiens) (UniProt P57078); conditions: Compound concentration 1000.0 nM
[6] = molecular target: Non-receptor tyrosine-protein kinase TYK2 (Homo sapiens) (UniProt P29597); conditions: Compound concentration 1000.0 nM
[7] = molecular target: Mitogen-activated protein kinase kinase kinase 12 (Homo sapiens) (UniProt Q12852); conditions: Compound concentration 1000.0 nM
[8] = test system: Fibroblast growth factor receptor 3 (Homo sapiens), P22607 [G697C]; conditions: Compound concentration 1000.0 nM
[9] = molecular target: Phosphatidylinositol 5-phosphate 4-kinase type-2 gamma (Homo sapiens) (UniProt Q8TBX8); conditions: Compound concentration 1000.0 nM
Sequence of Phosphatidylinositol 5-phosphate 4-kinase type-2 gamma (Homo sapiens) (Q8TBX8 whole entry): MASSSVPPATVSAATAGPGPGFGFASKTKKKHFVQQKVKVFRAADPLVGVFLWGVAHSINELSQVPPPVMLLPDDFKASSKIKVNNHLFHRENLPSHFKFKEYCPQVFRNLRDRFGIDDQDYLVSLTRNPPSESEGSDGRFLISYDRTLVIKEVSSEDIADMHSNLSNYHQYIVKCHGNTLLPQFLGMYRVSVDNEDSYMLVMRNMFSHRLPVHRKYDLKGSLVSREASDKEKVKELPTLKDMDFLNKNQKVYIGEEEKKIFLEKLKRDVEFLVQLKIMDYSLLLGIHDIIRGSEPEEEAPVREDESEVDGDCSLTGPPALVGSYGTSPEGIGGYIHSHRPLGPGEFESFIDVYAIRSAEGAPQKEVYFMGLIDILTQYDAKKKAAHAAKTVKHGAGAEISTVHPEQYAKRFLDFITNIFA

[10] = molecular target: Serine/threonine-protein kinase RIO2 (Homo sapiens) (UniProt Q9BVS4); conditions: Compound concentration 1000.0 nM
[11] = molecular target: Dual serine/threonine and tyrosine protein kinase (Homo sapiens) (UniProt Q6XUX3); conditions: Compound concentration 1000.0 nM
[12] = molecular target: Mitogen-activated protein kinase 3 (Homo sapiens) (UniProt P27361); conditions: Compound concentration 1000.0 nM
Sequence of Mitogen-activated protein kinase 3 (Homo sapiens) (P27361 whole entry): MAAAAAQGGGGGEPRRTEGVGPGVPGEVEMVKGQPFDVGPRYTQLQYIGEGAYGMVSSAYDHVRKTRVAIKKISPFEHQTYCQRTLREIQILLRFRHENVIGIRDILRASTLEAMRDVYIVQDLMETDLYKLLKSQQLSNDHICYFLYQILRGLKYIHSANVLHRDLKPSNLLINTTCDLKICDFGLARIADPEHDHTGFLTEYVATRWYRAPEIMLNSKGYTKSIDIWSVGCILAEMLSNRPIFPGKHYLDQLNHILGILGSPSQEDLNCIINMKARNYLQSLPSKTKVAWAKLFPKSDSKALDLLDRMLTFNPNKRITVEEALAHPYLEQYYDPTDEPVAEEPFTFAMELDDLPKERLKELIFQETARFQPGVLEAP

[13] = molecular target: Serine/threonine-protein kinase RIO1 (Homo sapiens) (UniProt Q9BRS2); conditions: Compound concentration 1000.0 nM
[14] = molecular target: Serine/threonine-protein kinase LATS2 (Homo sapiens) (UniProt Q9NRM7); conditions: Compound concentration 1000.0 nM
Sequence of Serine/threonine-protein kinase LATS2 (Homo sapiens) (Q9NRM7 whole entry): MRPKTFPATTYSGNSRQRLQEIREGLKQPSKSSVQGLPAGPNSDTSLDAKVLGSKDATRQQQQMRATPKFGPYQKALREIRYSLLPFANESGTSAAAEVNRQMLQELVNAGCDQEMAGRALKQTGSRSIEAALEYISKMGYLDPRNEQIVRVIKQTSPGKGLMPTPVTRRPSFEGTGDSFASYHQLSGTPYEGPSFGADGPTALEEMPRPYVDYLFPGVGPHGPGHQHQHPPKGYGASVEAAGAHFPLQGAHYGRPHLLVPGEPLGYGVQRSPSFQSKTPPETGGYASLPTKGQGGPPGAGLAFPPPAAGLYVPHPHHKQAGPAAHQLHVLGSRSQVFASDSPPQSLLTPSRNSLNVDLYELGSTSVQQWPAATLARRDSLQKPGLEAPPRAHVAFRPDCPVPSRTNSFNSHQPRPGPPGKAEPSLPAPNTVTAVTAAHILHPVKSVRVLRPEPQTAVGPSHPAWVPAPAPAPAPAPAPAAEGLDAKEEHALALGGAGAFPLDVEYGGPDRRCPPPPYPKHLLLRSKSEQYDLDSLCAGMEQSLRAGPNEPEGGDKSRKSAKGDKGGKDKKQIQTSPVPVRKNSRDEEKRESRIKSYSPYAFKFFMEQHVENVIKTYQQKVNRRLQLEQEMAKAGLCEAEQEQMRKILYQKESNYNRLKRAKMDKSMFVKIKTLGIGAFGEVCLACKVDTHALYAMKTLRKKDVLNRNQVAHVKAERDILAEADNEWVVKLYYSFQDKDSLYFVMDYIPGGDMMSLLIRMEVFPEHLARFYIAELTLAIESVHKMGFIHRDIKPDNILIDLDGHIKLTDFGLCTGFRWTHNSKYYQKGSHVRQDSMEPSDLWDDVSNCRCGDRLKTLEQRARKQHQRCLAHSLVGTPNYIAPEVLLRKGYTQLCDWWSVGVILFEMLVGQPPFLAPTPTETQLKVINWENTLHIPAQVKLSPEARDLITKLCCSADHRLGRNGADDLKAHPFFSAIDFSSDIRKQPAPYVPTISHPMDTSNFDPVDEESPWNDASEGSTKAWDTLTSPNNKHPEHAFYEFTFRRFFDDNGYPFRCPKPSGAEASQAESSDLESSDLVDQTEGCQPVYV

[15] = molecular target: Cyclin-dependent kinase 18 (Homo sapiens) (UniProt Q07002); conditions: Compound concentration 1000.0 nM
[16] = molecular target: SRSF protein kinase 3 (Homo sapiens) (UniProt Q9UPE1); conditions: Compound concentration 1000.0 nM
[17] = molecular target: Cyclin-dependent kinase 11A (Homo sapiens) (UniProt Q9UQ88); conditions: Compound concentration 1000.0 nM
[18] = molecular target: Insulin-like growth factor 1 receptor (Homo sapiens) (UniProt P08069); conditions: Compound concentration 1000.0 nM
[19] = molecular target: Macrophage colony-stimulating factor 1 receptor (Homo sapiens) (UniProt P07333); conditions: Compound concentration 1000.0 nM
Sequence of Macrophage colony-stimulating factor 1 receptor (Homo sapiens) (P07333 whole entry): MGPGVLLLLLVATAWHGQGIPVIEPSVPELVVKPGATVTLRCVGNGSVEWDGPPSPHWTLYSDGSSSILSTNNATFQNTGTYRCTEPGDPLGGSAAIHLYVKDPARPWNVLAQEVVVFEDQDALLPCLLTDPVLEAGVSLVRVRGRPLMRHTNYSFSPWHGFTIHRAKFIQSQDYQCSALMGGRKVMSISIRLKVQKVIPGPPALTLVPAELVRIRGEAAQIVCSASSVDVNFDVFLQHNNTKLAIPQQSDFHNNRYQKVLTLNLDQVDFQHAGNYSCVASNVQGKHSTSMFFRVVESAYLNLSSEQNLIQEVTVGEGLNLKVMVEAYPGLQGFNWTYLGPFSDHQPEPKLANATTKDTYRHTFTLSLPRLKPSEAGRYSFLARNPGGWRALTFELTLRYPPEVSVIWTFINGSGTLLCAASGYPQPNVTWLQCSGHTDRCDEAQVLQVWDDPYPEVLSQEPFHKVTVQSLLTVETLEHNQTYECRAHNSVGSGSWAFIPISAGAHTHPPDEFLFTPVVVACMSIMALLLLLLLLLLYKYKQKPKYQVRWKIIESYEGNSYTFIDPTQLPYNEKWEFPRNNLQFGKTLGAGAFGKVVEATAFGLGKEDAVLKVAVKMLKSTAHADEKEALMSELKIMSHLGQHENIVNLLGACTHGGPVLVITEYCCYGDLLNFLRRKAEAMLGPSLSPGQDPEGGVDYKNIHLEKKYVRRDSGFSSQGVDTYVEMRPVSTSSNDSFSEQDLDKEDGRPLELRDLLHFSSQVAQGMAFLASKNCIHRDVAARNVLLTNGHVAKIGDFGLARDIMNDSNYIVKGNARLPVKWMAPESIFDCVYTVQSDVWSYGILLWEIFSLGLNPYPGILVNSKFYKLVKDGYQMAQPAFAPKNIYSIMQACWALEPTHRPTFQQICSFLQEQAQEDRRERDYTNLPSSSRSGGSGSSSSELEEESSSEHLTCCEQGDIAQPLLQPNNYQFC

[20] = molecular target: SRSF protein kinase 1 (Homo sapiens) (UniProt Q96SB4); conditions: Compound concentration 1000.0 nM
Sequence of SRSF protein kinase 1 (Homo sapiens) (Q96SB4 whole entry): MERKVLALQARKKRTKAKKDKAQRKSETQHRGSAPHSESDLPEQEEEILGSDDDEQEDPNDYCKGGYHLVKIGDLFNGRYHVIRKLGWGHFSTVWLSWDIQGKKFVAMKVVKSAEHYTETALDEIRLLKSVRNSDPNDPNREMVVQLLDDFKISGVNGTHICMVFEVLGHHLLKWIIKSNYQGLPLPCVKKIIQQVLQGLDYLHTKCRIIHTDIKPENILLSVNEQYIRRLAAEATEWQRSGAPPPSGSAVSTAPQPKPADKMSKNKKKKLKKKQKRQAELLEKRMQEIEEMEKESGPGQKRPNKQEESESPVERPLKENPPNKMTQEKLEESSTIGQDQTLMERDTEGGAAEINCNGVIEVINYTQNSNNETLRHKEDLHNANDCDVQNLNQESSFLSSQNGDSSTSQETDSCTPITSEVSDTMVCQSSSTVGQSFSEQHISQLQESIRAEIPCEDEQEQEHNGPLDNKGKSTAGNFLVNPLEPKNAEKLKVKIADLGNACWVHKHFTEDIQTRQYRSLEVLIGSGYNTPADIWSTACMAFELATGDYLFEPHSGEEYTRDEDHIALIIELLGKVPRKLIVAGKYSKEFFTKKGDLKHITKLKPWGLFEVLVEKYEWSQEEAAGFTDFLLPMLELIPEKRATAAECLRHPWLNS

[21] = molecular target: Tyrosine-protein kinase Fgr (Homo sapiens) (UniProt P09769); conditions: Compound concentration 1000.0 nM
[22] = molecular target: Cyclin-dependent kinase 14 (Homo sapiens) (UniProt O94921); conditions: Compound concentration 1000.0 nM
Sequence of Cyclin-dependent kinase 14 (Homo sapiens) (O94921 whole entry): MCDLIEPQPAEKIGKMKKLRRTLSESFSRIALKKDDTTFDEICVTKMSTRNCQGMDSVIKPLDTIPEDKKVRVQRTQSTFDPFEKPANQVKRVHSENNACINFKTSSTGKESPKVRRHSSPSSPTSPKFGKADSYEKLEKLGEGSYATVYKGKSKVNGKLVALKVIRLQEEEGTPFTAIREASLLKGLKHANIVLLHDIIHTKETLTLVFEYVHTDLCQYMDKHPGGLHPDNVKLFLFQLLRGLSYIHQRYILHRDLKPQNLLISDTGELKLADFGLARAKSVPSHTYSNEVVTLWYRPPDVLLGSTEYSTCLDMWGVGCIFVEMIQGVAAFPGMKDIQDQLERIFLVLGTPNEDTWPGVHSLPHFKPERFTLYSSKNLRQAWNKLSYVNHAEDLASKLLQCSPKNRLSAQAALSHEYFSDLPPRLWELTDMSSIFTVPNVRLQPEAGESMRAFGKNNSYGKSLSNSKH

[23] = molecular target: Muscarinic acetylcholine receptor M1 (Homo sapiens) (UniProt P11229); conditions: Compound concentration 10.0 uM
[24] = molecular target: T2, TGF-beta receptor type-1 (Homo sapiens) (UniProt P36897); conditions: Compound concentration 1000.0 nM
T2 sequence (whole entry): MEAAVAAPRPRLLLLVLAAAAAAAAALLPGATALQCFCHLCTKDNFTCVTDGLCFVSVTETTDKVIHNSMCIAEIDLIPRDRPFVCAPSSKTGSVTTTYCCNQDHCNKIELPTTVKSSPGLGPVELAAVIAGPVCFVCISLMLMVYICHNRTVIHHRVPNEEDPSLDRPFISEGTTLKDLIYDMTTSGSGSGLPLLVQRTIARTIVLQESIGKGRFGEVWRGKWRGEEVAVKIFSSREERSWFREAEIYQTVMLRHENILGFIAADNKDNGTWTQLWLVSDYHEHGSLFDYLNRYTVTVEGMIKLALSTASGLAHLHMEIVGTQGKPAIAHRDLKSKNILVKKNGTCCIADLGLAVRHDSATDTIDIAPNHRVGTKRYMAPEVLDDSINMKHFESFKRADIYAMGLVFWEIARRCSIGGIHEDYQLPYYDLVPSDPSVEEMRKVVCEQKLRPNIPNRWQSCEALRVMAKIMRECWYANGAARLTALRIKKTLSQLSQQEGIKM

[25] = molecular target: Serine/threonine-protein kinase SIK2 (Homo sapiens) (UniProt Q9H0K1); conditions: Compound concentration 1000.0 nM
Sequence of Serine/threonine-protein kinase SIK2 (Homo sapiens) (Q9H0K1 whole entry, looked up, canonical isoform): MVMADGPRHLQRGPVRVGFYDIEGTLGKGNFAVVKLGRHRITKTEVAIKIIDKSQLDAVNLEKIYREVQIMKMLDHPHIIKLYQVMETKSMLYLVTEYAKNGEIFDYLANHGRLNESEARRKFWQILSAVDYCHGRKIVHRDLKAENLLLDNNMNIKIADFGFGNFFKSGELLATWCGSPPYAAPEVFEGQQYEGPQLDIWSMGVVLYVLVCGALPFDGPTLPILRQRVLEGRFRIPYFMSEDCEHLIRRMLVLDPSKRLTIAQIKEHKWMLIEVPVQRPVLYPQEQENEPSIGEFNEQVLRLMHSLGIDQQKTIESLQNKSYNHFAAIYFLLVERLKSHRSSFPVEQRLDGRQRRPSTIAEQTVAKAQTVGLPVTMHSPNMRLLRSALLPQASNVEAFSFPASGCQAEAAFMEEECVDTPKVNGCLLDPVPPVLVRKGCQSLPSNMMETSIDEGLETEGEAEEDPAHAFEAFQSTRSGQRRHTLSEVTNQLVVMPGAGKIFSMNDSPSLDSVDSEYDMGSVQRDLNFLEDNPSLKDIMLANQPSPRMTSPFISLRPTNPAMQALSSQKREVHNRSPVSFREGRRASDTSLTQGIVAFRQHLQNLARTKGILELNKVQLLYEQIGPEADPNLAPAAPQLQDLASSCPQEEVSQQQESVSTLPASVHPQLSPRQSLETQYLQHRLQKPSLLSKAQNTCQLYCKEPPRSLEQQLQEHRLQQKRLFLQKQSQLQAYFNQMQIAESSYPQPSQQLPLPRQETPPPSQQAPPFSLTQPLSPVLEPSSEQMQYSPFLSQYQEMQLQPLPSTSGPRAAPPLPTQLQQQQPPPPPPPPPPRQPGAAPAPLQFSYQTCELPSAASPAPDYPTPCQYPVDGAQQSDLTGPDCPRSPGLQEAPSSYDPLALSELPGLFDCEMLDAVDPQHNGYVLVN

[26] = molecular target: Casein kinase I isoform delta (Homo sapiens) (UniProt P48730); conditions: Compound concentration 1000.0 nM
[27] = molecular target: T3, Activin receptor type-1B (Homo sapiens) (UniProt P36896); conditions: Compound concentration 1000.0 nM
T3 sequence (whole entry): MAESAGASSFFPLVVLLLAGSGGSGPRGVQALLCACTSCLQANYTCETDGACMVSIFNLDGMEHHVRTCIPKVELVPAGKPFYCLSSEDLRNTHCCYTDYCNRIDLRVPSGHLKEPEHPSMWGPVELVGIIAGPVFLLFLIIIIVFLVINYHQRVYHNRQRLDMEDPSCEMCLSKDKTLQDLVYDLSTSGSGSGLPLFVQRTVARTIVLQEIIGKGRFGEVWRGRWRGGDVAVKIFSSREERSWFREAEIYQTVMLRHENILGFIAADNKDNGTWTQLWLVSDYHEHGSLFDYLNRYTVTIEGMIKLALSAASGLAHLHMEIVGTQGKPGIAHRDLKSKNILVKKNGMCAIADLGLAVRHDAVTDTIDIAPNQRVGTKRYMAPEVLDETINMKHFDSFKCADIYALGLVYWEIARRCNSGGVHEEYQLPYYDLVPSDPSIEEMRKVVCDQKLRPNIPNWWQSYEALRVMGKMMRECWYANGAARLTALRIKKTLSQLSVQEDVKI

CCc1ccccc1C(=O)Nc1n[nH]c2c(C)c(F)c(C3C(C#N)=C(C)N(C)C(C)=C3C#N)cc12 [BAY-3827]
inactive: residual activity [1] 95% | inhibition [2] 8.47% | residual activity [3] 100% | residual activity [4] 100% | residual activity [5] 92% | residual activity [6] 100% | residual activity [7] 94% | residual activity [8] 74% | residual activity [9] 77% | residual activity [10] 93% | residual activity [11] 95% | residual activity [12] 95% | residual activity [13] 82% | residual activity [14] 67% | residual activity [15] 75% | residual activity [16] 100% | residual activity [17] 86% | residual activity [18] 87% | residual activity [19] 100% | residual activity [20] 89% | residual activity [21] 51% | residual activity [22] 83% | inhibition [23] 2.81% | residual activity [24] 58% | residual activity [25] 69% | residual activity [26] 100% | residual activity [27] 100%

CC1=C(C#N)C(c2ccc3c(c2)c(NC(=O)c2ccccc2C)nn3C)C(C#N)=C(C)N1 [BAY-974]
inactive: residual activity [1] 100% | inhibition [2] 14.6% | residual activity [3] 100% | residual activity [4] 95% | residual activity [5] 78% | residual activity [6] 88% | residual activity [7] 80% | residual activity [8] 93% | residual activity [9] 92% | residual activity [10] 65% | residual activity [11] 72% | residual activity [12] 94% | residual activity [13] 93% | residual activity [14] 100% | residual activity [15] 100% | residual activity [16] 100% | residual activity [17] 100% | residual activity [18] 96% | residual activity [19] 99% | residual activity [20] 89% | residual activity [21] 92% | residual activity [22] 100% | inhibition [23] -1.37% | residual activity [24] 100% | residual activity [25] 93% | residual activity [26] 89% | residual activity [27] 80%
